From US12686687B2, “Compounds and uses thereof” (Foghorn Therapeutics Inc., priority 2019, dated 2026)
“Also recorded” adds a separate entry of the source.

Columns and labels:
[1] = test system: synovial sarcoma cell lines (SYO1, Yamato, HS-SY-II, and ASKA); assay: Growth of synovial sarcoma cell lines (IncuCyte confluency, crystal violet staining, colony imaging); type: cell-based, human; details: 1 μM or indicated concentrations (FIGS. 5-7)
Method: (§1) Cells were treated with DMSO or the BRD9 degrader, Compound 1, at indicated concentrations, and proliferation was monitored from day 7 to day 14 by measuring confluency over time using an IncuCyte live cell analysis system (FIG. 5). Growth medium and compounds were refreshed every 3-4 days.
(§2) Cells were seeded into 12-well plates and treated with DMSO, 1 μM BRD9 inhibitor, Compound 2 (also known as BI-7273, see Martin et al, J Med Chem. 59(10):4462-4475 (2016); see structure of compound 2 below), or 1 μM BRD9 degrader, Compound 1.
(§3) The number of cells was optimized for each cell line. Growth medium and compounds were refreshed every 3-5 days. SYO1, Yamato, A549, 293T and HS-SY-II cells were fixed and stained at day 11. ASKA cells were fixed and stained at day 23. Staining was done by incubation with crystal violet solution (0.5 g Crystal Violet, 27 ml 37% Formaldehyde, 100 mL 10×PBS, 10 mL Methanol, 863 dH2O to 1 L) for 30 minutes followed by 3× washes with water and drying the plates for at least 24h at room temperature. Subsequently plates were scanned on an Odyssey CLx Imaging system (FIG. 6).
(§4) Cells were seeded into 96-well ultra low cluster plate (Costar, #7007) in 200 μL complete media and treated at day 2 with DMSO, Staurosporin, or BRD9 degrader, Compound 1, at indicated doses (FIG. 7).

[2] = test system: non-synovial control cancer cell lines (293T, A549, G401); assay: Growth of non-synovial control cancer cell lines (crystal violet staining, colony imaging); type: cell-based, human; details: 1 μM or indicated doses (FIGS. 5-7)
Method: as §1, §2, §3, §4

[3] = test system: synovial sarcoma cell lines (SYO1, HS-SY-II, and ASKA); assay: Growth of synovial sarcoma cell lines, daily treatment, crystal violet at day 14; type: cell-based, human; details: treated daily, day 14 (FIG. 8)
Method: (§5) Procedure: Cells were seeded into 6-well or 12-well plates and were treated daily with a BRD9 degrader (Compound 1), a bromo-domain BRD9 binder (Compound 2), E3 ligase binder (lenalidomide), DMSO, or staurosporin (positive control for cell killing), at indicated concentrations. The number of cells was optimized for each cell line. Growth media was refreshed every 5 days. By day 14, medium was removed, cells were washed with PBS, and stained using 500 μL of 0.005% (w/v) crystal violet solution in 25% (v/v) methanol for at least 1 hour at room temperature.

[4] = test system: non-synovial control cancer cell lines (RD, HCT116, and Calu6); assay: Growth of non-synovial control cancer cell lines, daily treatment, crystal violet at day 14; type: cell-based, human; details: treated daily, day 14 (FIG. 9)
Method: as §5

[5] = test system: SYO1 cells; assay: Cell cycle analysis (Click-iT Plus EdU flow cytometry) in SYO1 cells; type: cell-based, human; details: SYO1, 200 nM or 1 μM, 8 or 13 days, compared to DMSO and lenalidomide
Method: (§6) Procedure: SYO1 cells were treated for 8 or 13 days with DMSO, a BRD9 degrader (Compound 1) at 200 nM or 1 μM, or an E3 ligase binder (lenalidomide) at 200 nM. Compounds were refreshed every 5 days. Cell cycle analysis was performed using the Click-iT™ Plus EdU Flow Cytometry Assay (Invitrogen). The apoptosis assay was performed using the Annexin V-FITC Apoptosis Detection Kit (Sigma A9210).

[6] = test system: SYO1 cells; assay: Apoptosis assay (Annexin V-FITC) in SYO1 cells; type: cell-based, human; details: SYO1, 200 nM or 1 μM, 8 days, compared to DMSO controls
Method: as §6

[7] = target: T1, BRD9 bromodomain (Flag-BRD9 P133-K239; Swiss Prot Q9H8M2) (Homo sapiens, UniProt Q9H8M2); assay: BRD9 bromodomain TR-FRET competition binding assay; details: 3 nM Flag-BRD9, 3.75 nM biotinylated ligand, 90 minutes at room temperature
T1 construct: His-Flag-BRD9 (P133-K239); Swiss Prot Q9H8M2; His6 with TEV site (mgsshhhhhhenlyfq/) (N, cleaved yes); made in house
T1 sequence (Q9H8M2 133-239): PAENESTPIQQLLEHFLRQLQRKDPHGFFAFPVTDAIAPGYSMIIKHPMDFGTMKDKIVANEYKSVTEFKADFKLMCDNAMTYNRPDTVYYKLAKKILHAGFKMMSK
Method: Cleaved His tag was removed by purification. […] DMSO or 3-fold serially diluted compounds were then added to the Proxiplate followed by addition of Flag-BRD9. After a 10-minute incubation at room temperature, Eu-W1024 anti-FLAG (PerkinElmer, AD0273) was added.

[8] = target: T2, Nanoluciferase-BRD9 fusion protein (3×FLAG-NLuc-BRD9) in SYO-1 cells (Homo sapiens, UniProt Q9H8M2); assay: SYO1 BRD9 NanoLuc degradation assay; type: cell-based; details: 6 hours treatment, 1 μM top dose; read-out: SYO1 BRD9-NanoLuc degradation IC50
T2 construct: expressed in transfected cells; host or cells: SYO-1
T2 sequence (Q9H8M2 1-597): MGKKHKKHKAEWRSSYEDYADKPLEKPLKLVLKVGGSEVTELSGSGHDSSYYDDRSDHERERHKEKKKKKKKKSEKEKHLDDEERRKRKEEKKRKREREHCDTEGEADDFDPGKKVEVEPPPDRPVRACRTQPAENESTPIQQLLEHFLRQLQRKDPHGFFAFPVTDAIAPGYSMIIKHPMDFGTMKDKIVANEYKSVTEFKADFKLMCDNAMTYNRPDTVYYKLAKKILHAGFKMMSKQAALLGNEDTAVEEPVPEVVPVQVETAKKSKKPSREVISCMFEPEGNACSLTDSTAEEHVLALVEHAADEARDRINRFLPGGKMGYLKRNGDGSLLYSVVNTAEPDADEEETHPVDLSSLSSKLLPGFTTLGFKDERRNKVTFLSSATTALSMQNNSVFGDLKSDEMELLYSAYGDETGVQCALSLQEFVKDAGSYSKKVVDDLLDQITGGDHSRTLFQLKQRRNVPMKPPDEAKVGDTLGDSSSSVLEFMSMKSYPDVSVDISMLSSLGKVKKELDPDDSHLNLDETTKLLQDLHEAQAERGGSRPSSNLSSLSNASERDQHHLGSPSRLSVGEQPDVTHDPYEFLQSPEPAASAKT
Outline: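 Stable SYO-1 line expressing 3×FLAG-NLuc-BRD9 was seeded at 8000 cells/well, then treated next day for 6 h with 10-point 3-fold dilutions (top 1 μM final). Nano-Glo luminescence was read. % inhibition was normalised to DMSO (high control) and 1 μM reference BRD9 degrader (low control).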

IC50 [7] [nM]	DC50 [8] [nM]	SMILES	other results
–	–	COc1cc(-c2cn(C)c(=O)c3cnccc23)cc(OC)c1CN(C)CC(=O)NCCOCCOCCNc1cccc2c1C(=O)N(C1CCC(=O)NC1=O)C2=O (stereo not shown) [Compound 1]	inhibition of cell growth [1]: inhibition of the growth of the cells; inhibition of cell growth [2]: does not result in inhibition of the growth; inhibition of cell growth [3]: inhibition of the growth of the cells; also recorded: most significant growth inhibition; inhibition of cell growth [4]: did not result in inhibition of the growth; cells in the S-phase of the cell cycle [5]: reduced numbers of cells in the S-phase; early- and late-apoptotic cells [6]: increased numbers of early- and late-apoptotic cells
–	–	COc1cc(-c2cn(C)c(=O)c3cnccc23)cc(OC)c1CN(C)C [Compound 2]	inhibition of cell growth [1]: inhibition of the growth of the cells; inhibition of cell growth [2]: does not result in inhibition of the growth; inhibition of cell growth [3]: inhibition of the growth of the cells; inhibition of cell growth [4]: did not result in inhibition of the growth
< 10	< 10	COc1cc(-c2cn(C)c(=O)c3cc(NC(=O)C4CCN(C(=O)CCCCOc5cccc6c5C(=O)N(C5CCC(=O)NC5=O)C6=O)CC4)sc23)cc(OC)c1CN(C)C (stereo not shown) [Compound D12, N-(7-[4-[(dimethylamino)methyl]-3,5-dimethoxyphenyl]-5-methyl-4-oxothieno[3,2-c]pyridin-2-yl)-1-(5-[[2-(2,6-dioxopiperidin-3-yl)-1,3-dioxoisoindol-4-yl]oxy]pentanoyl)piperidine-4 carboxamide]	–
< 10	< 10	COc1cc(-c2cn(C)c(=O)c3cc(C(=O)NC4CCN(CCCCCOc5cccc6c5C(=O)N(C5CCC(=O)NC5=O)C6=O)CC4(F)F)sc23)cc(OC)c1CN(C)C (stereo not shown) [Compound D13, 7-[4-[(dimethylamino)methyl]-3,5-dimethoxyphenyl]-N-[1-(5-[[2-(2,6-dioxopiperidin-3-yl)-1,3-dioxoisoindol-4-yl]oxy]pentyl)-3,3-difluoropiperidin-4-yl]-5-methyl-4-oxothieno[3,2-c]pyridine-2-carboxamide]	–
< 10	> 1000	COc1cc(-c2cn(C)c(=O)c3cc(NC(=O)C4CCN(CCCCCOc5cccc6c5C(=O)N(C5CCC(=O)NC5=O)C6=O)CC4)sc23)cc(OC)c1CN(C)C (stereo not shown) [Compound D6, N-(7-[4-[(dimethylamino)methyl]-3,5-dimethoxyphenyl]-5-methyl-4-oxothieno[3,2-c]pyridin-2-yl)-1-(5-[[2-(2,6-dioxopiperidin-3-yl)-1,3-dioxoisoindol-4-yl]oxy]pentyl)piperidine-4-carboxamide]	–
> 100	> 1000	COc1cc(-c2cn(C)c(=O)c3cc(NC(=O)C4CCN(C)CC4)sc23)cc(OC)c1CN(C)CC(=O)NCCOCCOc1cccc2c1C(=O)N(C1CCC(=O)NC1=O)C2=O (stereo not shown) [Compound D1, N-[7-(4-[[([[2-(2-[[2-(2,6-dioxopiperidin-3-yl)-1,3-dioxoisoindol-4-yl]oxy]ethoxy)ethyl]carbamoyl]methyl)(methyl)amino]methyl]-3,5-dimethoxyphenyl)-5-methyl-4-oxothieno[3,2-c]pyridin-2-yl]-1-methylpiperidine-4-carboxamide]	–
< 10	< 10	COc1cc(-c2cn(C)c(=O)c3cc(C(=O)NC4CCN(CCCCCOc5ccc6c(c5)C(=O)N(C5CCC(=O)NC5=O)C6=O)CC4(F)F)sc23)cc(OC)c1CN(C)C (stereo not shown) [Compound D15, 7-[4-[(dimethylamino)methyl]-3,5-dimethoxyphenyl]-N-[1-(5-[[2-(2,6-dioxopiperidin-3-yl)-1,3-dioxoisoindol-5-yl]oxy]pentyl)-3,3-difluoropiperidin-4-yl]-5-methyl-4-oxothieno[3,2-c]pyridine-2-carboxamide]	–
< 10	< 10	COc1cc(-c2cn(C)c(=O)c3cc(C(=O)NC4CCN(C(=O)CCCCOc5cccc6c5C(=O)N(C5CCC(=O)NC5=O)C6=O)CC4)sc23)cc(OC)c1CN(C)C (stereo not shown) [Compound D10, 7-(4-((dimethylamino)methyl)-3,5-dimethoxyphenyl)-N-(1-(5-((2-(2,6-dioxopiperidin-3-yl)-1,3-dioxoisoindolin-4-yl)oxy)pentanoyl)piperidin-4-yl)-5-methyl-4-oxo-4,5-dihydrothieno[3,2-c]pyridine-2-carboxamide]	–
